Experimental data from US9896423B2, “Deuterium substituted 1-[2-(2,4-dimethyl-phenylsulfanyl)-phenyl]piperazine compound or derivatives thereof, and pharmaceutical composition and use thereof” (Jiangsu Jibeier Pharmaceutical Co. Ltd., priority 2014, dated 2018).
Several values for one entry are separate records, joined by “and”; a condition that tells them apart may be missing. Equal values may be shown once. Read-outs that look alike come from different tables or passages of the source.

What was measured:
Male ICR mice = experiment: Mice swimming test; type: in vivo
Source text: The following method is used for testing the antidepression effect of the compound of the present application. ICR mice or SD rats, gavaged for two successive weeks, were subjected to mice swimming test, mice tail suspension test and rats swimming test. See below for details of the tests and results.
Male ICR mice weighing 18 g to 20 g were used. They were fed on sterilized standard feed.
The compound administered in the test was 1-{2-[2,4-bis(trideuteriomethyl)phenylsulfanyl]phenyl}piperazine hydrobromic acid salt (XX for short). Vortioxetine (YY for short) was used as a control sample. Venlafaxine HCl (from Wyeth, USA) was used as a positive control.
Vortioxetine (15 mg) was combined with 10% hydroxypropyl-β-cyclodextrin to form a solution of 100 mL and was administered at daily dose of 3 mg/kg. 1-{2-[2,4-bis(trideuteriomethyl)phenylsulfanyl]phenyl}piperazine hydrobromic acid salt (15 mg and 7.5 mg) was combined with 10% hydroxypropyl-β-cyclodextrin to form two solutions of 100 mL and was administered at daily doses of 3 mg/kg and 1.5 mg/kg, respectively. Venlafaxine HCl (75 mg) was combined with 0.5% CMC-Na to form a solution of 100 mL and was administered at daily dose of […].
A recording and analysis system for small-animal behavior (Noldus) was used.
All the eighty mice were subjected to prescreening one day before the administration. The mice, fasted for 4 hours were put in a round glass tank (ø 14 cm×h 20 cm, with water of 10 cm depth and at a temperature of 25° C.) to swim. […] The whole swimming course was recorded by the video and the data were collected and analyzed automatically by Noldus software.
The forty qualified mice were divided into 4 groups, each of which had 10 mice, according to the Excel random grouping.
The medicaments were administered to each group by gavage with the amount of 0.2 ml per 10 g of body weight, once a day for 14 successive days. One hour later after the last oral administration, the mice were allowed to swim for 6 min. The video recorded the whole swimming course, and the Noldus software automatically collected and analyzed the data.
The data was given as “average±standard deviation” (x±s). One-way analysis of variance (one-way ANOVA) was used for data difference statistics. Differences among the groups were determined by P<0.05.

[1] = Pharmacokinetic test in rats, gavage administration; type: in vivo, SD rats
Method: The preferred compound of the present disclosure was assessed in rats for its pharmacokinetic profile.
SD rats, male and female, weighing 150 to 250 g
Mobile phase: 10 mM ammonium formate aqueous solution:methanol=15:85
The ionization source was electrospray ionization source. The detection mode was positive mode. Multiple reaction monitoring (MRM) was used as the scanning mode. The ion reaction for the quantitative analysis was the following: m/z was 305.2\150.0 for XX, and 256.1\167.1 for diphenhydramine (the internal standard).
XX or YY was orally administered with single dose of 20 mg/kg to six SD rats, one half of which were male and the other half was female. XX or YY was dissolved in 10% hydroxypropyl-β-cyclodextrin. […]
After the blood collection, the tubes were immediately gently turned upside down at least five times to ensure sufficient mixing, and placed on ice. Heparin was added for anticoagulation. The samples were centrifuged at 8000 rpm for 5 min to separate serum from erythrocyte. The serum was transferred with a pipettor to 2 mL polypropylene (PP) tubes, which were marked with the name of the compound and the time points, and stored in a refrigerator at −40° C. before LC-MS analysis. Samples with high concentrations were diluted with rat blank plasma.
2.5 μL of Meth-H2O and 5 μL of the internal standard solution (20 ng/mL, IS) were added to 50 μL of the plasma. Subsequently, 150 μL of methanol was added to the mixture to precipitate protein and the samples were then centrifuged at 13000 rpm for 5 min. The upper organic phase was taken out, filtrated with a 0.22 μM microporous membrane, and 2 μL of the sample was injected for the LC-MS analysis.

Question: Which “effect on length of time that the mice stopped swimming vs blank control” value (Male ICR mice; 3 mg/kg gavage, two successive weeks) does the source give for `Cc1ccc(Sc2ccccc2N2CCNCC2)c(C)c1` [YY, 1-[2-(2,4-dimethyl-phenylsulfanyl)-phenyl]piperazine] here?
Answer: did not shorten

Question: And the “Duration without Movement within the Last 4 min of the Whole 6 min” value (Male ICR mice; mice, gavage once a day for 14 days, 3 mg/kg, n = 10, x ± s)?
Answer: 199.6 ± 26.1 s

Question: And the “Concentrations in Plasma of Rats after Oral Administration” value (“Concentrations in Plasma of Rats” below) ([1]; 20 mg/kg oral, 10 min (Table 5: 0.167 h) after administration, individual rats 1-6)?
Answer: 17.9 ng/mL and 9.42 ng/mL and 28.1 ng/mL and 14.3 ng/mL and 38.4 ng/mL and 6.11 ng/mL

Question: And the “Concentrations in Plasma of Rats” value ([1]; 20 mg/kg oral, 0.5 h, individual rats 1-6)?
Answer: 86.5 ng/mL and 38.1 ng/mL and 52.3 ng/mL and 49.7 ng/mL

Question: And the “Concentrations in Plasma of Rats” value ([1]; 20 mg/kg oral, 1 h, individual rats 1-6)?
Answer: 123 ng/mL and 65.5 ng/mL and 77.4 ng/mL and 81.1 ng/mL and 93.2 ng/mL and 55.6 ng/mL

Question: And the “Concentrations in Plasma of Rats” value ([1]; 20 mg/kg oral, 1.5 h, individual rats 1-6)?
Answer: 154 ng/mL and 85.2 ng/mL and 82.9 ng/mL and 89.2 ng/mL and 73.2 ng/mL and 54.9 ng/mL

Question: What about the “Concentrations in Plasma of Rats” value ([1]; 20 mg/kg oral, 2 h, individual rats 1-6) of the same molecule?
Answer: 182 ng/mL and 68.3 ng/mL and 91.8 ng/mL and 81.9 ng/mL and 72 ng/mL and 56.4 ng/mL

Question: What about the “Concentrations in Plasma of Rats” value ([1]; 20 mg/kg oral, 3 h, individual rats 1-6) of the same molecule?
Answer: 120 ng/mL and 48.2 ng/mL and 58.3 ng/mL and 55.9 ng/mL and 42.9 ng/mL and 34.2 ng/mL

Question: What about the “Concentrations in Plasma of Rats” value ([1]; 20 mg/kg oral, 4 h, individual rats 1-6) of the same molecule?
Answer: 93.6 ng/mL and 46.9 ng/mL and 52.9 ng/mL and 55.2 ng/mL and 42.1 ng/mL and 29.9 ng/mL

Question: And the “Concentrations in Plasma of Rats” value ([1]; 20 mg/kg oral, 6 h, individual rats 1-6)?
Answer: 57.4 ng/mL and 37.7 ng/mL and 36.7 ng/mL and 33.5 ng/mL and 30.5 ng/mL and 22.4 ng/mL

Question: What about the “Concentrations in Plasma of Rats” value ([1]; 20 mg/kg oral, 8 h, individual rats 1-6) of the same molecule?
Answer: 27.5 ng/mL and 16.7 ng/mL and 17.7 ng/mL and 16.3 ng/mL and 18.8 ng/mL and 11.3 ng/mL

Question: And the “Concentrations in Plasma of Rats” value ([1]; 20 mg/kg oral, 10 h, individual rats 1-6)?
Answer: 14.5 ng/mL and 8.39 ng/mL and 10.9 ng/mL and 8.32 ng/mL and 9.4 ng/mL and 7.24 ng/mL

Question: And the “Concentrations in Plasma of Rats” value ([1]; 20 mg/kg oral, 12 h, individual rats 1-6)?
Answer: 7.3 ng/mL and 4.87 ng/mL and 4.29 ng/mL and 7.01 ng/mL and 4.1 ng/mL and 3.17 ng/mL

Question: And the “Concentrations in Plasma of Rats” value ([1]; 20 mg/kg oral, 14 h, individual rats 1-6)?
Answer: 7.19 ng/mL and 2.5 ng/mL and 3.69 ng/mL and 4.35 ng/mL and 3.79 ng/mL and 2.95 ng/mL

Question: And the “Concentrations in Plasma of Rats” value ([1]; 20 mg/kg oral, 24 h, individual rats 1-6)?
Answer: 0.728 ng/mL and 0.431 ng/mL and 0.716 ng/mL and 0.374 ng/mL and 0.394 ng/mL and 1.21 ng/mL

Question: What about the MRT inf ([1]; both sexes, SD, rat, plasma, po, 20 mg/kg, rats, oral 20 mg/kg, individual rats 1-6, read-out: MRT0-∞) of the same molecule?
Answer: 4.49 h

Question: And the half-life ([1]; both sexes, SD, rat, plasma, po, 20 mg/kg, rats, oral 20 mg/kg, individual rats 1-6, read-out: t1/2 (converted))?
Answer: 183 min

Question: And the AUC(0-t) ([1]; both sexes, SD, rat, plasma, po, 20 mg/kg, rats, oral 20 mg/kg, n = 6, read-out: AUC0-1, Mean ± SD)?
Answer: 489 ± 180 ng·h/mL

Question: What about the AUC(0-inf) ([1]; both sexes, SD, rat, plasma, po, 20 mg/kg, rats, oral 20 mg/kg, n = 6, read-out: AUC0-∞, Mean ± SD) of the same molecule?
Answer: 491 ± 181 ng·h/mL

Question: What about the Cmax ([1]; both sexes, SD, rat, plasma, po, 20 mg/kg, rats, oral 20 mg/kg, n = 6, read-out: Cmax, Mean ± SD) of the same molecule?
Answer: 99.6 ± 42.6 ng/mL

Question: What about the MRT inf ([1]; both sexes, SD, rat, plasma, po, 20 mg/kg, rats, oral 20 mg/kg, n = 6, read-out: MRT0-∞, Mean ± SD) of the same molecule?
Answer: 4.75 ± 0.31 h

Question: And the half-life ([1]; both sexes, SD, rat, plasma, po, 20 mg/kg, rats, oral 20 mg/kg, n = 6, read-out: t1/2, Mean ± SD (converted))?
Answer: 178 ± 25.8 min

Question: What about the concentration at 10 min ([1]; both sexes, Sprague-Dawley, rat, plasma, oral, 20 mg/kg, 20 mg/kg oral, 10 min (Table 5: 0.167 h), mean of 6 rats, read-out: Concentrations in Plasma of Rats after Oral Administration, Mean ± SD) of the same molecule?
Answer: 19 ± 12.2 ng/mL
